The record followed here is article PMC3755041 (Chemistry & biology, 2013).

For test [1], the target named is T1, human peroxiredoxin-II (hPrxII) (Homo sapiens, UniProt P32119).
T1 sequence (P32119 2-198): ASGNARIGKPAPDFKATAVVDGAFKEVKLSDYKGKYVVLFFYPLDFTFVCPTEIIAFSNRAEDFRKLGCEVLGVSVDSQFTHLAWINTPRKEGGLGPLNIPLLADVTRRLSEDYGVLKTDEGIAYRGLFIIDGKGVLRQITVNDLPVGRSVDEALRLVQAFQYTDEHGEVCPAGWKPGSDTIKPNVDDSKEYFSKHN
Put plainly: H2O2 consumption assay. The test is classed as biochemical.

The target in test [2] is AcePrx-1 (peroxiredoxin-1) (Ancylostoma ceylanicum, UniProt J7HJM3). The test can be described thus: co-crystal structure. The test is classed as biochemical.
For test [3], the target named is T2, human peroxiredoxin-IV (hPrxIV) (Homo sapiens, UniProt Q13162).
T2 sequence (Q13162 38-271): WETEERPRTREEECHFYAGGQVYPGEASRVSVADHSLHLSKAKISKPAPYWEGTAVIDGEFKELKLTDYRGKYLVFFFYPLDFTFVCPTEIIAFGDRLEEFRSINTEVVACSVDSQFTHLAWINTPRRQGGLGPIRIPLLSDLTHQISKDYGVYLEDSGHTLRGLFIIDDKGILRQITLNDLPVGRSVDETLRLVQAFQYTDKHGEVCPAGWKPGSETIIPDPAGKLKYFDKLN
The test can be described thus: H2O2 consumption assay. Type of test: biochemical.

The target in test [4] is T3, AcePrx-1 (peroxiredoxin-1) (Ancylostoma ceylanicum, UniProt J7HJM3).
T3 sequence (J7HJM3 1-196): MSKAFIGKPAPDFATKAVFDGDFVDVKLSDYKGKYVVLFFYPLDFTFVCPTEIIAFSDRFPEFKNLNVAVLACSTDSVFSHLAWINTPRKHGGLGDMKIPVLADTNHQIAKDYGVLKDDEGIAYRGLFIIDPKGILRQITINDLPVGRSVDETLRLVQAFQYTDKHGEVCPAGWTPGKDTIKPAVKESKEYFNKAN
Put plainly: LC-ESI-MS of covalent adduct on purified protein. The test is classed as binding.

Test [5] concerns the target AcePrx-1 containing a C-terminal histidine tag (Ancylostoma ceylanicum). The test can be described thus: SEC-MALS. Background: In gel filtration, larger molecules generally elute earlier.
Test [6] addresses Peroxiredoxin-1 from Ancylostoma ceylanicum, wild type, N-terminal histidine tag (Ancylostoma ceylanicum). Put plainly: SEC-MALS.
The target is the same in test [7]. The test can be described thus: non-reducing SDS-PAGE.

pIC50: −log10 of the molar value.

By pIC50 is commonly meant the negative decadic logarithm of the IC50, by convention in mol/L. A higher pIC50 goes with a small IC50. Take `[O-][n+]1c(CBr)c(CBr)[n+]([O-])c2ccccc21` [conoidin A, 2,3-bis(bromomethyl)quinoxaline-1,4-dioxide]: the pIC50 was 3.45 in test [1], 3.43 in test [2] and 3.58 in test [3].

As for `Cc1c(CBr)[n+]([O-])c2ccccc2[n+]1[O-]` [conoidin B, 2-(bromomethyl)-3-methylquinoxaline-1,4-dioxide], the “LC-ESI-MS of covalent adduct on purified protein” value in test [4] was “Conoidin B reacted to wild type AcePrx-1 to produce a 189-Da adduct in LC-ESI-MS”.

As usually defined, the stoichiometry N is the number of molecules, sites or subunits per partner or assembly. In test [5], “AcePrx-1 containing a C-terminal histidine tag (enzyme)” came in with a stoichiometry N of 10.

In the case of “Peroxiredoxin-1 from Ancylostoma ceylanicum, wild type, N-terminal histidine tag (enzyme)”, the stoichiometry N in test [6] was 10; in test [7], 2.
